The source of these data is US8269000B2, “Substituted pyrimidine and triazine compounds” (Gruenenthal GmbH, priority 2008, dated 2012).

This assay addresses T1, rat B1R (Rattus norvegicus, UniProt P97583).
T1 construct: expressed in transfected cells; host or cells: CHO K1 cells
T1 sequence (P97583 1-337): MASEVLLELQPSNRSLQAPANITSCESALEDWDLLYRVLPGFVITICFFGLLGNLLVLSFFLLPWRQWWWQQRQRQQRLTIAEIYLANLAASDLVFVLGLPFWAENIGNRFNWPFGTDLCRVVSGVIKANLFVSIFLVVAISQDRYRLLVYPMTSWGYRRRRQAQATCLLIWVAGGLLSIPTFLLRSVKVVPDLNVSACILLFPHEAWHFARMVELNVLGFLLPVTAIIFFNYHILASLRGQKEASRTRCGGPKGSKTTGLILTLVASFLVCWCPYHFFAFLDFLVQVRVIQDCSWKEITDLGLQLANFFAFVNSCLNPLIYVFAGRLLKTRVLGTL
Put plainly: FLIPR Ca2+ functional study on bradykinin receptor 1 (rB1R CHO K1 cells). The assay is classed as cell-based. As to conditions: for inhibition at 10 µM: CHO-K1, % inhibition rat B1R at 10 μM, read-out: % inh. (rat B1R) 10 μM; for % inh. (rat B1R) 10 μM: % inhibition rat B1R at 10 μM. The gist of the method: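 CHO K1 cells stably expressing human or rat B1R were loaded with Fluo-4 and read on FLIPR (ex 488/em 540 nm, peak counts). Test compound (10 μM, or a concentration range for IC50) was added first for % activation versus control agonist; after 10-20 min, EC80 Lys-Des-Arg9-bradykinin (human) or Des-Arg9-bradykinin (rat) was added, giving % inhibition of maximum. n=2-3, N≥2.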

In the case of `COc1cc(C)c(S(=O)(=O)N2CCCCC2COc2nccc(N3CCC(Oc4ccccn4)CC3)n2)c(C)c1` (stereo not drawn) [G_CC-078, 2-[[1-[(4-methoxy-2,6-dimethyl-phenyl)sulfonyl]-piperidin-2-yl]-methoxy]-4-(4-pyridin-2-yloxy-piperidin-1-yl)-pyrimidine], the inhibition at 10 µM worked out at 98%.
On the same count and under the same terms, next, `COc1cc(C)c(S(=O)(=O)N2CCC[C@H]2COc2ccnc(N3CCC(O)(c4cccnc4)CC3)n2)c(C)c1` [H_CC-013, 1-[4-[[(2S)-1-(4-methoxy-2,6-dimethylphenyl)sulfonyl-2-pyrrolidinyl]methoxy]-2-pyrimidinyl]-4-(3-pyridyl)-4-piperidinol]: 79%; `COc1cc(C)c(S(=O)(=O)N(C)C(COc2nccc(N3CCC(CCCN4CCCC4)(c4cccnc4)CC3)n2)c2ccccc2)c(C)c1` (stereo not drawn) [G_CC-108, 4-methoxy-N,2,6-trimethyl-N-[1-phenyl-2-[4-[4-pyridin-3-yl-4-(3-pyrrolidin-1-yl-propyl)-piperidin-1-yl]-pyrimidin-2-yl]oxy-ethyl]-benzenesulfonic acid amide]: 102%.
Regarding `COc1cc(C)c(S(=O)(=O)N2CCC[C@H]2COc2nccc(N(C)CCCN3CCC(c4ccccc4)(N(C)C)CC3)n2)c(C)c1` [G_CC-075, 3-(4-dimethylamino-4-phenyl-piperidin-1-yl)-propyl-[2-[[(2S)-1-[(4-methoxy-2,6-dimethyl-phenyl)sulfonyl]-pyrrolidin-2-yl]-methoxy]-pyrimidin-4-yl]-methyl-amine], the inhibition at 10 µM worked out at 104%.
On the same count and under the same terms, then `COc1cc(C)c(S(=O)(=O)N2CC(Oc3nccc(N4CCC(CCN5CCCCC5)CC4)n3)C2)c(C)c1` [G_CC-129, 2-[1-[(4-methoxy-2,6-dimethyl-phenyl)sulfonyl]-azetidin-3-yl]oxy-4-[4-(2-piperidin-1-yl-ethyl)-piperidin-1-yl]-pyrimidine], with 73%; and `COc1cc(C)c(S(=O)(=O)N2CCCCC2COc2ccnc(N3CCC(O)(c4cccnc4)CC3)n2)c(C)c1` (stereo not drawn) [H_CC-007, 1-[4-[[1-(4-methoxy-2,6-dimethylphenyl)sulfonyl-2-piperidinyl]methoxy]-2-pyrimidinyl]-4-(3-pyridyl)-4-piperidinol], with 71%.
On the same count and under the same terms, next, `CCCCC1(N(C)C)CCN(CCN(C)c2nccc(OCC3CCCCN3S(=O)(=O)c3c(C)cc(OC)cc3C)n2)CC1` (stereo not drawn) [H_CC-045, 2-(4-butyl-4-dimethylamino-piperidin-1-yl)-ethyl-[4-[[1-[(4-methoxy-2,6-dimethyl-phenyl)sulfonyl]-piperidin-2-yl]-methoxy]-pyrimidin-2-yl]-methyl-amine]: 96%.
As for `COc1cc(C)c(S(=O)(=O)N2c3ccccc3C[C@H]2COc2ccnc(N3CCC(CCN4CCCC4)CC3)n2)c(C)c1` [H_CC-017, (2S)-1-(4-methoxy-2,6-dimethylphenyl)sulfonyl-2-[[2-[4-(2-1-pyrrolidinylethyl)-1-pipendinyl]-4-pyrimidinyl]oxymethyl]indoline], the “% inh. (rat B1R) 10 μM” value is given as 93%.
As to `COc1cc(C)c(S(=O)(=O)N2CCC[C@H]2COc2nccc(N3CCC(N4CCN(C)CC4)CC3)n2)c(C)c1` [G_CC-017, 2-[[(2S)-1-(4-methoxy-2,6-dimethylphenyl)sulfonyl-2-pyrrolidinyl]methoxy]-4-[4-(4-methyl-1-piperazinyl)-1-piperidinyl]pyrimidine], the inhibition at 10 µM was 98%.
For `COc1cc(C)c(S(=O)(=O)N2CCCCC2COc2nccc(N3CCC4(CC3)OCc3ccccc34)n2)c(C)c1` (stereo not drawn) [G_CC-023, 1′-[2-[[1-(4-methoxy-2,6-dimethylphenyl)sulfonyl-2-piperidinyl]methoxy]-4-pyrimidinyl]spiro[1H-isobenzofuran-3,4′-piperidine]], the inhibition at 10 µM was determined as 50%.
Regarding `COc1cc(C)c(S(=O)(=O)N(C)C(COc2nccc(N3CCC(C)(N4CCOCC4)CC3)n2)c2ccccc2)c(C)c1` (stereo not drawn) [G_CC-137, 4-methoxy-N,2,6-trimethyl-N-[2-[4-(4-methyl-4-morpholin-4-yl-piperidin-1-yl)-pyrimidin-2-yl]oxy-1-phenyl-ethyl]benzenesulfonic acid amide], the inhibition at 10 µM was 77%.
Still for that read-out and setting: next, `COc1cc(C)c(S(=O)(=O)N2CCC[C@@H]2COc2ccnc(N3CCCC3Cc3ccccn3)n2)c(C)c1` (stereo partly drawn) [H_CC-084, 4-[[(2R)-1-[(4-methoxy-2,6-dimethyl-phenyl)sulfonyl]-pyrrolidin-2-yl]-methoxy]-2-[2-(pyridin-2-yl-methyl)-pyrrolidin-1-yl]-pyrimidine]: 55%; `COc1cc(C)c(S(=O)(=O)N2CCCC(Oc3ccnc(N(C)CCN4CCC(c5ccccc5)(N5CCCC5)CC4)n3)C2)c(C)c1` (stereo not drawn) [H_CC-066, [4-[1-[(4-methoxy-2,6-dimethyl-phenyl)sulfonyl]-piperidin-3-yl]oxy-pyrimidin-2-yl]-methyl-[2-(4-phenyl-4-pyrrolidin-1-yl-piperidin-1-yl)-ethyl]amine]: 56%; `COc1cc(C)c(S(=O)(=O)N2CCCCC2COc2nccc(N3CCC(c4cccc(F)c4)(N4CCN(C)CC4)CC3)n2)c(C)c1` (stereo not drawn) [G_CC-104, 4-[4-(3-fluorophenyl)-4-(4-methyl-piperazin-1-yl)-piperidin-1-yl]-2-[[1-[(4-methoxy-2,6-dimethyl-phenyl)sulfonyl]-piperidin-2-yl]-methoxy]-pyrimidine]: 101%.
On the same count and under the same terms, next, `CCCCC1(N(C)C)CCN(c2nccc(OC[C@@H]3CCCN3S(=O)(=O)c3c(C)cc(OC)cc3C)n2)CC1` [H_CC-068, [4-butyl-1-[4-[[(2S)-1-[(4-methoxy-2,6-dimethyl-phenyl)sulfonyl]-pyrrolidin-2-yl]-methoxy]-pyrimidin-2-yl]-piperidin-4-yl]-dimethyl-amine]: 65%.
For the molecule `COc1cc(C)c(S(=O)(=O)N2CC(Oc3ccnc(N(C)CCN4CCC(c5ccccc5)(N5CCCC5)CC4)n3)C2)c(C)c1` [H_CC-070], the “% inh. (rat B1R) 10 μM” value was 53%.
Consider `CCCCC1(N(C)C)CCN(CCN(C)c2nccc(OC3CN(S(=O)(=O)c4c(C)cc(OC)cc4C)C3)n2)CC1` [H_CC-071, 2-(4-butyl-4-dimethylamino-piperidin-1-yl)-ethyl-[4-[1-[(4-methoxy-2,6-dimethyl-phenyl)sulfonyl]-azetidin-3-yl]oxy-pyrimidin-2-yl]-methyl-amine], for which the inhibition at 10 µM was found to be 55%.
For `COc1cc(C)c(S(=O)(=O)N2CCCCC2COc2ccnc(N(C)CCN3CCC(Oc4ccncc4)CC3)n2)c(C)c1` (stereo not drawn) [H_CC-049, [4-[[1-[(4-methoxy-2,6-dimethyl-phenyl)sulfonyl]-piperidin-2-yl]-methoxy]-pyrimidin-2-yl]-methyl-[2-(4-pyridin-4-yloxy-piperidin-1-yl)-ethyl]amine], the inhibition at 10 µM is 94%.
In the case of `COc1cc(C)c(S(=O)(=O)N2CCCC(Oc3nccc(N4CCC(CCN5CCCCC5)CC4)n3)C2)c(C)c1` (stereo not drawn) [G_CC-027], the “% inh. (rat B1R) 10 μM” value is reported as 63%.
In the case of `COc1cc(C)c(S(=O)(=O)N2CCCC(Oc3ccnc(N4CCC(c5ccccc5)(N(C)C)CC4)n3)C2)c(C)c1` (stereo not drawn) [H_CC-064, [1-[4-[1-[(4-methoxy-2,6-dimethyl-phenyl)sulfonyl]-piperidin-3-yl]oxy-pyrimidin-2-yl]-4-phenyl-piperidin-4-yl]-dimethyl-amine], the inhibition at 10 µM was determined as 61%.
On the same count and under the same terms, then `COc1cc(C)c(S(=O)(=O)N(C)CCOc2ccnc(N3CCCC3Cc3ccccn3)n2)c(C)c1` (stereo not drawn) [H_CC-087, 4-methoxy-N,2,6-trimethyl-N-[2-[2-[2-(pyridin-2-yl-methyl)-pyrrolidin-1-yl]-pyrimidin-4-yl]oxy-ethyl]-benzenesulfonic acid amide], with 57%.
